Laboratory results published in the SangsterLogP compilation.

experiment: method code SF-HPLC, from DOI: 10.1080/01483919108049310; details: pH 8.5

First: Cc1nn(-c2ccccc2)c(Nc2ccccc2)c1[N+](=O)[O-]
Second: Cc1cccc(Nc2c([N+](=O)[O-])c(C)nn2-c2ccccc2)c1
The logD of the first is lower: 2.98 for the first, 3.25 for the second.

Going from `Cc1nn(-c2ccccc2)c(Nc2ccc(Cl)cn2)c1[N+](=O)[O-]` to `Cc1ccc(Nc2c([N+](=O)[O-])c(C)nn2-c2ccccc2)cc1`, the logD falls from 3.74 to 3.43.

Going from `Cc1nn(-c2ccccc2)c(NN=Cc2ccc3c(c2[N+](=O)[O-])OCO3)c1[N+](=O)[O-]` to `Cc1nn(-c2ccccc2)c(Nc2ccc([N+](=O)[O-])cc2)c1[N+](=O)[O-]`, the logD falls from 3.39 to 2.78.

`Cc1nn(-c2ccccc2)c(Nc2ccc(C(F)(F)F)cc2)c1[N+](=O)[O-]` and `Cc1ccccc1Nc1c([N+](=O)[O-])c(C)nn1-c1ccccc1` are within 0.2 log units of each other in logD: 3.89 for the first, 3.8 for the second.
